Data published in ChEMBL document CHEMBL1201862, “PubChem BioAssay data set” (2004).
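Tested at 5 concentrations; 48 h exposure; 96-well plates; endpoints linearly interpolated, else capped at highest concentration. Abbreviation: GI50, concentration required for 50% inhibition of growth.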 The source made the active and inactive calls. No stated cut-off is given here; in the data, active = GI50 up to about 1.1 µM and inactive = higher.

Assays:
Experiment in all cases: growth of human tumour cells (NCI), 48 h
UACC-257 = system: UACC-257
HT-29 = system: HT-29
SF-539 = system: SF-539
SNB-19 = system: SNB-19
RPMI-8226 = system: RPMI-8226
HOP-62 = system: HOP-62
SF-268 = system: SF-268
NCI-H23 = system: NCI-H23
IGROV-1 = system: IGROV-1
MCF7 = system: MCF7
CAKI-1 = system: CAKI-1
U-251 = system: U-251
SF-295 = system: SF-295
SW-620 = system: SW-620
HOP-92 = system: HOP-92
OVCAR-8 = system: OVCAR-8
NCI-H226 = system: NCI-H226
SK-OV-3 = system: SK-OV-3
OVCAR-3 = system: OVCAR-3
TK-10 = system: TK-10

Measured: GI50

COc1cc(/C=C2\N=C(c3ccccc3)N(c3ccc(S(=O)(=O)Nc4nccs4)cc3)C2=O)ccc1O
inactive: UACC-257 > 100 µM | HT-29 59.7 µM | SF-539 79.4 µM | SNB-19 > 100 µM | RPMI-8226 45 µM | HOP-62 61.8 µM | SF-268 51.9 µM | NCI-H23 > 100 µM | IGROV-1 > 100 µM | MCF7 67.1 µM | CAKI-1 > 100 µM | U-251 75.5 µM | SF-295 > 100 µM | SW-620 77.6 µM | HOP-92 40.7 µM | OVCAR-8 > 100 µM | NCI-H226 71 µM | SK-OV-3 > 100 µM | OVCAR-3 > 100 µM | TK-10 > 100 µM

O=C1C=CC(O)(C#CCO)C=C1
inactive: UACC-257 14.6 µM | HT-29 14.3 µM | SF-539 17 µM | SNB-19 22 µM | RPMI-8226 3.74 µM | HOP-62 30.5 µM | SF-268 17.6 µM | NCI-H23 16.9 µM | IGROV-1 13 µM | MCF7 4.33 µM | CAKI-1 4.02 µM | U-251 11.6 µM | SF-295 39.3 µM | SW-620 4.62 µM | HOP-92 2.59 µM | OVCAR-8 13.3 µM | NCI-H226 13.4 µM | SK-OV-3 58.1 µM | OVCAR-3 17 µM | TK-10 13.1 µM

O=C1OC2(C(F)(F)F)Oc3ccccc3CN2C12CCCCC2 (stereo unspecified)
inactive: UACC-257 27 µM | HT-29 23.7 µM | SF-539 33.4 µM | SNB-19 36.3 µM | HOP-62 29.2 µM | SF-268 35.6 µM | NCI-H23 25.4 µM | IGROV-1 48.4 µM | MCF7 39.1 µM | CAKI-1 18.7 µM | U-251 26 µM | SF-295 21.1 µM | SW-620 35.6 µM | HOP-92 24.9 µM | OVCAR-8 36.3 µM | NCI-H226 27.4 µM | SK-OV-3 26.7 µM | OVCAR-3 28.6 µM | TK-10 46.2 µM

CC1=NN(c2nc(N)nc(CSCc3nc(N)nc(N(C)C)n3)n2)C(C)(C)C1
inactive: UACC-257 > 100 µM | HT-29 > 100 µM | SF-539 > 100 µM | SNB-19 > 100 µM | RPMI-8226 > 100 µM | HOP-62 > 100 µM | SF-268 > 100 µM | NCI-H23 > 100 µM | IGROV-1 > 100 µM | MCF7 > 100 µM | CAKI-1 > 100 µM | U-251 > 100 µM | SF-295 > 100 µM | SW-620 > 100 µM | HOP-92 > 100 µM | OVCAR-8 > 100 µM | NCI-H226 > 100 µM | SK-OV-3 > 100 µM | OVCAR-3 > 100 µM | TK-10 > 100 µM

Cn1nc(-c2ccc(S(=O)(=O)N/C(=N/c3ccc(Cl)cc3)NN)s2)cc1C(F)(F)F
inactive: UACC-257 19.5 µM | HT-29 16.2 µM | SF-539 13.5 µM | SNB-19 16.5 µM | RPMI-8226 21.3 µM | HOP-62 16.5 µM | SF-268 17.7 µM | NCI-H23 20.3 µM | IGROV-1 19.3 µM | MCF7 21 µM | CAKI-1 18.7 µM | U-251 14.6 µM | SF-295 16.2 µM | SW-620 18.4 µM | HOP-92 20.4 µM | OVCAR-8 19.6 µM | NCI-H226 13.4 µM | SK-OV-3 20.9 µM | OVCAR-3 19.7 µM | TK-10 19.1 µM

O=C(OCCN=c1c2ccccc2ccc2ccccc12)c1cc([N+](=O)[O-])cc([N+](=O)[O-])c1
inactive: UACC-257 > 100 µM | HT-29 > 100 µM | SF-539 > 100 µM | SNB-19 > 100 µM | RPMI-8226 > 100 µM | HOP-62 > 100 µM | SF-268 > 100 µM | NCI-H23 > 100 µM | IGROV-1 > 100 µM | MCF7 > 100 µM | CAKI-1 > 100 µM | U-251 > 100 µM | SF-295 > 100 µM | SW-620 > 100 µM | HOP-92 > 100 µM | OVCAR-8 > 100 µM | NCI-H226 > 100 µM | SK-OV-3 > 100 µM | OVCAR-3 40.6 µM | TK-10 > 100 µM

NC1CNC(=O)c2c(Cl)sc(Cl)c21 (stereo unspecified)
inactive: UACC-257 > 100 µM | HT-29 > 100 µM | SF-539 > 100 µM | SNB-19 > 100 µM | RPMI-8226 > 100 µM | HOP-62 > 100 µM | SF-268 > 100 µM | NCI-H23 > 100 µM | IGROV-1 > 100 µM | MCF7 > 100 µM | CAKI-1 > 100 µM | U-251 > 100 µM | SF-295 > 100 µM | SW-620 > 100 µM | HOP-92 > 100 µM | OVCAR-8 > 100 µM | NCI-H226 > 100 µM | SK-OV-3 > 100 µM | OVCAR-3 > 100 µM | TK-10 > 100 µM

Brc1cccc(C2(CCCC3(c4cccc(Br)n4)OCCO3)OCCO2)n1
inactive: UACC-257 > 100 µM | SF-539 39.2 µM | SNB-19 > 100 µM | RPMI-8226 > 100 µM | HOP-62 > 100 µM | SF-268 21.2 µM | NCI-H23 > 100 µM | IGROV-1 > 100 µM | MCF7 > 100 µM | CAKI-1 > 100 µM | SF-295 68.7 µM | SW-620 > 100 µM | HOP-92 > 100 µM | NCI-H226 > 100 µM | SK-OV-3 > 100 µM | OVCAR-3 > 100 µM | TK-10 > 100 µM

O=C(c1ccco1)C1CC(c2ccc3ccccc3c2O)=NN1 (stereo unspecified)
inactive: UACC-257 62.2 µM | HT-29 86.5 µM | SF-539 > 100 µM | RPMI-8226 42.9 µM | HOP-62 > 100 µM | SF-268 > 100 µM | NCI-H23 > 100 µM | IGROV-1 > 100 µM | MCF7 46.5 µM | CAKI-1 > 100 µM | U-251 > 100 µM | SF-295 55.8 µM | SW-620 84.1 µM | HOP-92 > 100 µM | OVCAR-8 83.2 µM | NCI-H226 > 100 µM | SK-OV-3 > 100 µM | OVCAR-3 57.3 µM | TK-10 > 100 µM

CCCCCC[C@H]1C(=O)O[C@H](C)[C@H](NC(=O)c2cccc(NC=O)c2OC)C(=O)O[C@@H](C)[C@@H]1OC(=O)C(C)CC.CCCCCC[C@H]1C(=O)O[C@H](C)[C@H](NC(=O)c2cccc(NC=O)c2OC)C(=O)O[C@@H](C)[C@@H]1OC(=O)CC(C)C (stereo partly specified)
inactive: UACC-257 3.96 µM | HT-29 8.59 µM | SF-539 29.3 µM | RPMI-8226 8.57 µM | HOP-62 > 100 µM | SF-268 26.1 µM | NCI-H23 8.49 µM | MCF7 4.88 µM | CAKI-1 12.9 µM | U-251 11.7 µM | SF-295 14.5 µM | SW-620 14.5 µM | HOP-92 17.5 µM | OVCAR-8 11.6 µM | NCI-H226 17.6 µM | SK-OV-3 15.3 µM | OVCAR-3 6.71 µM | TK-10 16 µM

NNC(=O)c1ccc(OCc2nc3ccccc3[nH]2)cc1
inactive: UACC-257 66.4 µM | HT-29 > 100 µM | SF-539 > 100 µM | SNB-19 > 100 µM | RPMI-8226 55.6 µM | SF-268 89.3 µM | NCI-H23 > 100 µM | IGROV-1 > 100 µM | MCF7 72.6 µM | CAKI-1 > 100 µM | U-251 > 100 µM | SF-295 > 100 µM | SW-620 > 100 µM | HOP-92 > 100 µM | OVCAR-8 > 100 µM | NCI-H226 > 100 µM | SK-OV-3 > 100 µM | OVCAR-3 43.5 µM | TK-10 > 100 µM

COC(=O)C[C@H](COCc1ccccc1)NC(=O)C[C@H](COCc1ccccc1)NC(=O)OC(C)(C)C
inactive: HT-29 30 µM | SF-539 34.7 µM | SNB-19 21.2 µM | RPMI-8226 39.5 µM | HOP-62 21.6 µM | SF-268 20 µM | NCI-H23 35.3 µM | IGROV-1 33.7 µM | MCF7 19.8 µM | CAKI-1 29.7 µM | U-251 27.9 µM | SF-295 34.1 µM | SW-620 55.8 µM | HOP-92 23.7 µM | OVCAR-8 24.7 µM | NCI-H226 > 100 µM | SK-OV-3 23.2 µM | OVCAR-3 27.7 µM

CCCCNC(=O)Nc1c(C(N)=O)c2n(c1C(=O)OCC)CCCCC2
inactive: UACC-257 > 100 µM | HT-29 > 100 µM | SF-539 > 100 µM | SNB-19 > 100 µM | RPMI-8226 > 100 µM | HOP-62 > 100 µM | SF-268 > 100 µM | NCI-H23 > 100 µM | IGROV-1 > 100 µM | MCF7 > 100 µM | CAKI-1 > 100 µM | U-251 > 100 µM | SF-295 > 100 µM | SW-620 > 100 µM | HOP-92 > 100 µM | OVCAR-8 > 100 µM | NCI-H226 3.89 µM | SK-OV-3 > 100 µM | TK-10 > 100 µM

O=C1NC(=O)C(C(CC(=O)c2ccc(Cl)cc2)c2ccc(Cl)cc2)C(=O)N1 (stereo unspecified)
inactive: UACC-257 > 100 µM | HT-29 > 100 µM | SF-539 18 µM | SNB-19 > 100 µM | RPMI-8226 33.7 µM | HOP-62 > 100 µM | SF-268 36.2 µM | NCI-H23 > 100 µM | IGROV-1 > 100 µM | MCF7 17.2 µM | U-251 > 100 µM | SF-295 > 100 µM | SW-620 > 100 µM | HOP-92 40.4 µM | OVCAR-8 > 100 µM | NCI-H226 > 100 µM | OVCAR-3 60.4 µM
